Legend:
[1] = tested on: CA20948 tumor xenograft-bearing mice; experiment: SPECT/CT tumor uptake of 177Lu-DOTATATE; format: in vivo; details: dynamic SPECT imaging after intravenous administration, one mouse
CA20948 tumor xenografts = experiment: In vivo 177Lu tumor dosimetry from SPECT VOI analysis; parameters: species or system mice; details: single exponential fit of tumour time-activity data; mean ± SD

time at which maximum tumor uptake was reached [1]: 60 min | mean effective half-life of clearance from the tumor xenografts (CA20948 tumor xenografts): 46.3 ± 8.6 h
Structure (SMILES): C[C@@H](O)[C@H](NC(=O)[C@@H]1CSSC[C@H](NC(=O)[C@@H](Cc2ccccc2)NC(=O)CN2CCN(CC(=O)O)CCN(CC(=O)O)CCN(CC(=O)O)CC2)C(=O)N[C@@H](Cc2ccc(O)cc2)C(=O)N[C@H](Cc2c[nH]c3ccccc23)C(=O)N[C@@H](CCCCN)C(=O)N[C@@H]([C@@H](C)O)C(=O)N1)C(=O)O [^177Lu-DOTATATE, (DOTA^0-Tyr^3)-octreotate, metal not drawn]
